Data reported in US9619875B2, “Contrast reagent leakage correction in dynamic susceptibility contrast magnetic resonance imaging” (OREGON HEALTH & SCIENCE UNIVERSITY, priority 2014, dated 2017).

Assay: DSC MRI with gadoteridol (day 1) and ferumoxytol (day 2) in subjects with Glioblastoma multiforme
Format: in vivo
Text: In this example, 17 subjects with Glioblastoma multiforme (GBM) were prospectively studied on institutional review board approved protocols. Informed written consent was obtained from each subject. Subjects underwent MRI sessions consisting of two consecutive days of MRI scans. On the first day, pre- and post-contrast T1-weighted images and DSC-MRI were acquired using gadoteridol gadolinium (III) chelate (ProHance, Bracco Diagnostic Inc., Princeton, N.J.). On the following day, the same MRI sequences were acquired using ferumoxytol (provided by AMAG Pharmaceuticals, Inc., Cambridge, Mass.). […]
All Gd and Fe DSC data were first motion corrected within each dynamic series and then between the series using FMRIB's Linear Image Registration Tool (FLIRT) within FM RIB Software Library (FSL). […] The Gd CR extravasating rate constant was calculated either with the Equation 1 fitting approach to obtain K2, or the KL constant defined as the slope of the linear portion of the graphed points using Equation 2. In this example, linear regression was performed starting at 40 seconds post CR injection to ensure minimal influence of CR transient period (period (i) shown in FIGS. 2E and 2F described below) on KL quantification. […]

CC(O)CN1CCN(CC(=O)[O-])CCN(CC(=O)[O-])CCN(CC(=O)[O-])CC1.[Gd+3] (centres unmarked) [gadoteridol, gadoteridol gadolinium (III) chelate]
complications during the MR examinations (17 GBM subjects, gadoteridol 0.1 mmol/kg i.v., ferumoxytol 1 mg/kg, 2 mg/kg or 75 mg i.v.): No subject had any complications | pixels with appreciable linearity departure (period iii, intravasation) (Equation 2 linearization, data up to 70 s post CR injection): < 0.1%
